Consider 2 compounds from patent US8058442B2 (Technion Research and Development Foundation Ltd., priority 2002, dated 2011).

Like-named read-outs stand apart in the source and are kept apart here.

The subject of one series is PC12 cells. The series is described as follows: Neuroprotection of PC12 cells against serum-deprivation induced apoptosis (MTT test). It is filed as cell-based, rat. As to conditions: for number of survival cells (cell viability, % of cells cultured with serum): 0.1 μM chelator, serum-free medium, 24 h, serum-free control 38%. As to the method:
Rat PC12 cells, originated from rat pheochromocytoma, were grown at 37° C., in a humid 5% CO2, 95% air environment, in a growth medium containing Dulbecco's modified Eagle's Medium (DMEM, GIBCO, BRL) supplemented with glucose (1 mg/1 ml), 5% fetal calf serum, 10% horse serum, and 1% of a mixture of streptomycin/penicillin. On confluence, the culture was removed and the cells were detached by vigorous washing, centrifuged at 200 g for 5 min and resuspended in DMEM with full serum content. 0.5×10^4 cells/well were placed in microtiter plates (96 wells) precoated with collagen (10 μg/cm^2 were allowed to attach for 24 h before treatment).
Twenty-four hours after attachment of the PC12 cells as described in (g), the medium was replaced with DMEM containing 0.1% BSA. The test compounds were added to the cells after 1 h of incubation. After 24 h incubation, the cells were subjected to MTT test as previously described (Gassen et al., 1998). The absorption was determined in a Perkin-Elmer Dual Wavelength Eliza-Reader at λ=570/650 nm after automatic subtraction of background readings. The results are expressed as percentage of the untreated control.
PC12 cells were grown in serum-free medium alone or in serum-free medium with different concentration of the chelators VK-28, M32, HLA20 and Rasagiline. After 24 h incubation, the cells were subjected to MTT test.
Cell viability was expressed as a percentage of cells cultured in medium supplemented with serum, which served as the control group and was designated as 100%. […] Experimental data are shown as mean±SD (r=6).
For orientation: Tetrazolium dyes change colour on reduction, which living cells bring about.

The next series addresses T1, rat brain MAO-A (Rattus norvegicus, UniProt P21396).
T1 construct: from tissue; host or cells: rat brain homogenate, 4500 g pellet
T1 sequence (P21396 1-526): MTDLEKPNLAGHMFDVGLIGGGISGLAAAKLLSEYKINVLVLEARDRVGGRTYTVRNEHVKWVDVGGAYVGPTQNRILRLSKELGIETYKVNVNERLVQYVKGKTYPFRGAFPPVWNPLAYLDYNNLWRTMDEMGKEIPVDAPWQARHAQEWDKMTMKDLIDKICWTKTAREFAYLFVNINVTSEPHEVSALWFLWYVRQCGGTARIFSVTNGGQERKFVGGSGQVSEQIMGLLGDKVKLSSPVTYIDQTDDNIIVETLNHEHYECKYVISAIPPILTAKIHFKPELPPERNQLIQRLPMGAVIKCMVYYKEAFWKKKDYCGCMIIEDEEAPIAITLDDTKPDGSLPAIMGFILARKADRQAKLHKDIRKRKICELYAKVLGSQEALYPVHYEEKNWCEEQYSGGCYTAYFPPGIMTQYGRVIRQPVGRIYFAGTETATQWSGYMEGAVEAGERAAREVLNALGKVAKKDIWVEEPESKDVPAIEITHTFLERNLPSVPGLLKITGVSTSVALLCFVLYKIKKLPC
The series is described as follows: In vitro inhibition of rat brain MAO-A. It is filed as biochemical. Particulars: read-out: inhibition of MAO-A. As to the method:
Rats were decapitated and the brains were quickly taken into a weighted ice-cold sucrose buffer (0.32 M), and their weights were determined. All subsequent procedures were performed at 0-4° C. The brains were homogenized in 0.25 M sucrose (one part tissue to 20 parts sucrose) in a Teflon glass homogenizer followed by the addition of sucrose buffer to a final concentration of 10% homogenate. The homogenates were centrifuged at 600 g for 15 min. The supernatant fraction was taken out and centrifuged at 4500 g for 30 min, the pellet was diluted in 0.32 M sucrose buffer and kept frozen for later assaying of MAO. Protein concentration was determined with Bradford reagent at 595 nm, using bovine serum albumin as a standard.
The test compound was added to a suitable dilution of the enzyme preparation (70 μg protein for MAO-B and 150 μg MAO-A assay) in 0.05 M phosphate buffer (pH 7.4). The mixture was incubated together with […], a specific inhibitor of MAO-B (for determination of MAO-A) or […] clorgylin, a specific inhibitor of MAO-A (for determination of MAO-B). Incubation was carried for 1 h at 37° C. before addition of ^14C-5-hydroxytryptamine binoxalate ([…]) for determination of MAO-A, or ^14C-phenylethylamine 100 µM for determination of MAO-B, and incubation continued for 30 min or 20 min, respectively. The reaction was stopped with 2 M ice-cold citric acid, and the metabolites were extracted and determined by liquid-scintillation counting in cpm units.
MAO-A and MAO-B activities were determined in rat brain homogenate in vitro following incubation with varying concentrations of the test compounds.
In another experiment, the in vitro inhibitory activity of HLA20, M32, VK-28, M30, M31, and propargylamine (P) was tested against rat brain MAO-A. The test compounds were added to buffer containing 10^−7M deprenyl and were incubated with the tissue homogenate for 60 min at 37° C. before addition of ^14C-5-hydroxytryptamine. MAO-A activity in presence of the test compound was expressed as a percentage of that in control samples.

Series [1] is described as follows: Iron chelation in solution: fluorescence dequenching of iron-quenched calcein. Particulars: Fe-CAL in HBS pH 7.4, room temperature, 1 h incubation, read-out: half maximal dequenching level. As to the method:
Iron binding was determined by the chelator capacity for restoring the fluorescence of iron-quenched calcein (CAL), a dynamic fluorescent metallosensor. The iron-scavenging properties of the chelators were assessed in solution, by mixing iron salts with free CAL.
Iron precomplexed calcein (Fe-CAL) solutions of 1 μm (in Hepes 20 mM buffered saline, pH 7.4=HBS) were incubated in the presence of the indicated concentrations of different chelators at room temperature and the fluorescence intensity (475 nm->520 nm) followed with time in a Tecan fluorescence plate reader, using 96-well culture plates (Nunc) at 100 μl final volume. The time-dependent complexation of iron from Fe-CAL by the chelators was followed by fluorescence dequenching. The fluorescence intensity attained after 1 h incubation is shown as a function of the chelator concentration.
The corresponding half maximal dequenching level for the corresponding chelator was (in μM) (rank order from the fastest acting to the slowest): […]

What is called inhibition is the percentage by which the read-out fell short of the control.

On to `C#CCN1CCN(Cc2ccc(O)c3ncccc23)CC1` [HLA20, 5-(4-propargylpiperazin-1-ylmethyl)-8-hydroxyquinoline], for which the “number of survival cells (cell viability, % of cells cultured with serum)” value in the series on PC12 cells is 65%. Also, in the series on PC12 cells (1 or 10 μM, compared with 0.1 μM), the “change in the protection against PC12 cell death induced by serum withdrawal” value is reported as “no significant change in the protection”. At rat brain MAO-A, the inhibition at 100 µM came out at 26.1%. Further, the EC50 in series [1] (FIG. 1A) is 3.5 µM; in series [1] (FIG. 1B), 5.4 µM.

Turning to `OCCN1CCN(Cc2ccc(O)c3ncccc23)CC1` [VK-28, 5-[4-(2-hydroxyethyl)piperazin-1-ylmethyl]-8-hydroxyquinoline, reference compound], in the series on PC12 cells, the “number of survival cells (cell viability, % of cells cultured with serum)” value came to 80%. In the series on PC12 cells (1 μM), the “inhibitory activity against PC12 apoptosis induced by serum withdrawal” value is recorded as “good inhibitory activity”. For the same compound, in the series with PC12 cells (10 μM), the “PC12 cell death in serum-free medium (toxicity)” value is listed as “about 75%”. For the same compound, the inhibition at 100 µM on rat brain MAO-A (100 μM) is 15.1%. Moreover, the values for the EC50 in series [1] (FIG. 1B) and in series [1] (FIG. 1C) were 5.2 µM and 3.2 µM, respectively.
